# In ChEMBL document CHEMBL1201862, “PubChem BioAssay data set” (2004):
#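 Step 1: Grow cells in 96-well plates. Step 2: Expose to compound for 48 hours at 5 concentrations. Step 3: Interpolate endpoints linearly; if unreached, use highest concentration. At the GI50, growth is halved.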 Calls of active or inactive are those of the source. No stated cut-off is given here; in the data, active = GI50 up to about 1.1 µM and inactive = higher.
# Columns and labels:
# Test in all cases: DTP human tumour cell line panel, 48 h
# RPMI-8226 = test system: RPMI-8226
# UACC-257 = test system: UACC-257
# SF-268 = test system: SF-268
# TK-10 = test system: TK-10
# Malme-3M = test system: Malme-3M
# MCF7 = test system: MCF7
# HCT-116 = test system: HCT-116
# T47D = test system: T47D
# SK-OV-3 = test system: SK-OV-3
# NCI-H522 = test system: NCI-H522
# NCI/ADR-RES = test system: NCI/ADR-RES
# A549 = test system: A549
# DU-145 = test system: DU-145
# HL-60 = test system: HL-60
# HOP-92 = test system: HOP-92
# A498 = test system: A498
# LOX IMVI = test system: LOX IMVI
# SK-MEL-5 = test system: SK-MEL-5
# NCI-H226 = test system: NCI-H226
SMILES,GI50 (RPMI-8226),GI50 (UACC-257),GI50 (SF-268),GI50 (TK-10),GI50 (Malme-3M),GI50 (MCF7),GI50 (HCT-116),GI50 (T47D),GI50 (SK-OV-3),GI50 (NCI-H522),GI50 (NCI/ADR-RES),GI50 (A549),GI50 (DU-145),GI50 (HL-60),GI50 (HOP-92),GI50 (A498),GI50 (LOX IMVI),GI50 (SK-MEL-5),GI50 (NCI-H226)
CN(C(=O)Cc1cc(Cl)c(Cl)cc1N=C=S)[C@H]1CCCC[C@@H]1N1CCCC1,7.96 µM (inactive),14.6 µM (inactive),15.8 µM (inactive),10.1 µM (inactive),17.4 µM (inactive),13.3 µM (inactive),8.49 µM (inactive),16.1 µM (inactive),18 µM (inactive),13.1 µM (inactive),17.8 µM (inactive),15.4 µM (inactive),14.7 µM (inactive),10.1 µM (inactive),9.42 µM (inactive),13.5 µM (inactive),5.9 µM (inactive),14 µM (inactive),–
COC(=O)CNC(=O)CSc1nnc(COc2ccc(Cl)cc2)n1-c1ccccc1,–,29.9 µM (inactive),22.2 µM (inactive),22 µM (inactive),41.3 µM (inactive),79.6 µM (inactive),94.4 µM (inactive),26.6 µM (inactive),> 100 µM (inactive),15.3 µM (inactive),> 100 µM (inactive),> 100 µM (inactive),16.3 µM (inactive),30.1 µM (inactive),31.8 µM (inactive),> 100 µM (inactive),31.3 µM (inactive),–,47.4 µM (inactive)
N=C(N)n1nc2c(c1O)CCCC2,> 100 µM (inactive),> 100 µM (inactive),> 100 µM (inactive),> 100 µM (inactive),> 100 µM (inactive),> 100 µM (inactive),> 100 µM (inactive),> 100 µM (inactive),> 100 µM (inactive),> 100 µM (inactive),> 100 µM (inactive),> 100 µM (inactive),> 100 µM (inactive),> 100 µM (inactive),–,8.22 µM (inactive),> 100 µM (inactive),> 100 µM (inactive),> 100 µM (inactive)
CCCCNC(=O)c1cc2c(cc1Cl)Sc1nccn1S2(=O)=O,> 100 µM (inactive),> 100 µM (inactive),> 100 µM (inactive),> 100 µM (inactive),> 100 µM (inactive),66.4 µM (inactive),31 µM (inactive),64 µM (inactive),> 100 µM (inactive),51.8 µM (inactive),79.6 µM (inactive),> 100 µM (inactive),> 100 µM (inactive),41.3 µM (inactive),25.4 µM (inactive),> 100 µM (inactive),30.3 µM (inactive),0.0116 µM (active),–
Cc1nc(O)c2ncn(CCO)c2n1,–,> 100 µM (inactive),> 100 µM (inactive),> 100 µM (inactive),> 100 µM (inactive),> 100 µM (inactive),> 100 µM (inactive),> 100 µM (inactive),> 100 µM (inactive),> 100 µM (inactive),> 100 µM (inactive),> 100 µM (inactive),> 100 µM (inactive),> 100 µM (inactive),–,> 100 µM (inactive),> 100 µM (inactive),> 100 µM (inactive),> 100 µM (inactive)
CC(=O)O[C@H]1CC[C@@]2(C)C(=CC[C@H]3[C@@H]4C/C(=C\c5ccc(N(C)C)cc5)[C@H](OC(C)=O)[C@@]4(C)CC[C@@H]32)C1,4.89 µM (inactive),6.14 µM (inactive),12.7 µM (inactive),15.6 µM (inactive),12.6 µM (inactive),7.62 µM (inactive),6.37 µM (inactive),5.56 µM (inactive),43.4 µM (inactive),–,13.1 µM (inactive),5.92 µM (inactive),23.8 µM (inactive),11.5 µM (inactive),–,18.9 µM (inactive),8.91 µM (inactive),12.5 µM (inactive),12.1 µM (inactive)
CC(C)(C)OC(=O)CC(NC(=O)OC(C)(C)C)C(=O)Oc1ccc([N+](=O)[O-])cc1 (stereo not drawn),> 100 µM (inactive),> 100 µM (inactive),3.2 µM (inactive),> 100 µM (inactive),> 100 µM (inactive),> 100 µM (inactive),> 100 µM (inactive),89.5 µM (inactive),29.9 µM (inactive),> 100 µM (inactive),> 100 µM (inactive),> 100 µM (inactive),> 100 µM (inactive),–,> 100 µM (inactive),> 100 µM (inactive),> 100 µM (inactive),78.7 µM (inactive),> 100 µM (inactive)
CCc1c(CN)c(CC)c(CNC2=NCCN2)c(CC)c1CNC1=NCCN1,> 100 µM (inactive),> 100 µM (inactive),> 100 µM (inactive),> 100 µM (inactive),> 100 µM (inactive),> 100 µM (inactive),> 100 µM (inactive),> 100 µM (inactive),> 100 µM (inactive),> 100 µM (inactive),> 100 µM (inactive),> 100 µM (inactive),> 100 µM (inactive),–,> 100 µM (inactive),> 100 µM (inactive),–,> 100 µM (inactive),> 100 µM (inactive)
O=c1c2c([N+](=O)[O-])cccc2nc2[nH]c3ccccc3n12,64.1 µM (inactive),> 75 µM (inactive),18.7 µM (inactive),18.7 µM (inactive),46 µM (inactive),20.4 µM (inactive),34.1 µM (inactive),15 µM (inactive),13.3 µM (inactive),–,26.4 µM (inactive),40.3 µM (inactive),34 µM (inactive),> 75 µM (inactive),19.8 µM (inactive),26.6 µM (inactive),32.8 µM (inactive),35 µM (inactive),22.3 µM (inactive)
c1ccc(C2=C(c3ccccc3)P(c3ccccc3)C2)cc1 (stereo not drawn),–,> 100 µM (inactive),> 100 µM (inactive),> 100 µM (inactive),67.1 µM (inactive),> 100 µM (inactive),83.4 µM (inactive),> 100 µM (inactive),> 100 µM (inactive),47.6 µM (inactive),40.1 µM (inactive),43.4 µM (inactive),> 100 µM (inactive),–,> 100 µM (inactive),> 100 µM (inactive),–,–,53.2 µM (inactive)
CCOc1ccccc1N1CSc2nnc(-c3ccccc3)n2C1,33.8 µM (inactive),> 100 µM (inactive),> 100 µM (inactive),> 100 µM (inactive),> 100 µM (inactive),97.3 µM (inactive),53.8 µM (inactive),> 100 µM (inactive),> 100 µM (inactive),> 100 µM (inactive),> 100 µM (inactive),> 100 µM (inactive),> 100 µM (inactive),–,> 100 µM (inactive),> 100 µM (inactive),–,> 100 µM (inactive),> 100 µM (inactive)
COc1cc(C2c3cccc4cccc(c34)C3CCC(=O)N32)cc(O)c1O (stereo not drawn),11.5 µM (inactive),24.7 µM (inactive),–,–,–,20.6 µM (inactive),20.7 µM (inactive),29.9 µM (inactive),> 50 µM (inactive),–,37.7 µM (inactive),31.2 µM (inactive),> 50 µM (inactive),14.6 µM (inactive),> 50 µM (inactive),> 50 µM (inactive),–,–,> 50 µM (inactive)
CCCCCCNCCc1c[nH]cn1,> 100 µM (inactive),> 100 µM (inactive),> 100 µM (inactive),–,> 100 µM (inactive),> 100 µM (inactive),> 100 µM (inactive),> 100 µM (inactive),> 100 µM (inactive),> 100 µM (inactive),> 100 µM (inactive),> 100 µM (inactive),> 100 µM (inactive),–,> 100 µM (inactive),> 100 µM (inactive),> 100 µM (inactive),> 100 µM (inactive),> 100 µM (inactive)
CN(Cc1cnc2nc(N)nc(N)c2n1)c1ccc(C(=O)NCS(=O)(=O)O)cc1,> 100 µM (inactive),> 100 µM (inactive),33.3 µM (inactive),> 100 µM (inactive),> 100 µM (inactive),57.9 µM (inactive),43.3 µM (inactive),> 100 µM (inactive),> 100 µM (inactive),> 100 µM (inactive),34.3 µM (inactive),95.7 µM (inactive),25.7 µM (inactive),–,1.34 µM (inactive),> 100 µM (inactive),90.4 µM (inactive),> 100 µM (inactive),> 100 µM (inactive)
Cc1onc(-c2c(F)cccc2Cl)c1C(=O)N[C@@H]1C(=O)N2[C@@H]1SC(C)(C)[C@@H]2C(=O)O,> 100 µM (inactive),> 100 µM (inactive),> 100 µM (inactive),> 100 µM (inactive),> 100 µM (inactive),> 100 µM (inactive),> 100 µM (inactive),> 100 µM (inactive),> 100 µM (inactive),> 100 µM (inactive),> 100 µM (inactive),> 100 µM (inactive),> 100 µM (inactive),–,> 100 µM (inactive),> 100 µM (inactive),–,> 100 µM (inactive),> 100 µM (inactive)
Cc1cn([C@H]2C=C[C@@H](CO)O2)c(=O)[nH]c1=O [STAVUDINE],466 µM (inactive),> 1000 µM (inactive),> 1000 µM (inactive),583 µM (inactive),361 µM (inactive),617 µM (inactive),> 1000 µM (inactive),473 µM (inactive),> 1000 µM (inactive),350 µM (inactive),678 µM (inactive),> 1000 µM (inactive),> 1000 µM (inactive),348 µM (inactive),679 µM (inactive),–,> 1000 µM (inactive),> 1000 µM (inactive),> 1000 µM (inactive)
